Data: paper PMC7060200, “Selective Binding of HSC70 and its Co-Chaperones to Structural Hotspots on CFTR” (Scientific Reports, 2020)
Ends that are not written are not given here.

Assays:
HSC70 [1] = target: T1, HSC70 (Homo sapiens, UniProt P11142); test: ELISA binding of HSC70 to immobilized CFTR NBD1 and competition by soluble peptides; conditions: 1 μM HSC70, with ATP, soluble peptide, Fig. 4a; n = 5
T1 construct: made in house
Experimental: (§1) HSC70, DJA1 and DJA2 were purified as His-tagged proteins, as described. HSC70 was also amplified by PCR with an N-terminal FLAG tag, inserted into pPROEXHTa (Invitrogen) and purified as described. HSC70 was stored in 100 mM KOAc, 20 mM HEPES-KOH pH 7.5, 5 mM MgOAC2 (buffer G), DJA1 and DJA2 in 500 mM NaCl, 20 mM HEPES-KOH pH 7.5, 5 mM MgOAC2 (buffer H). Avi-tagged CFTR NBD1 was purified as described.
For NBD1 binding, 100 nM of strep-tagged NBD1 in 100 µl of 150 mM NaCl, 50 mM Na2HPO4 pH 7.5, 1 mM ATP, and 40 µM DTT (buffer N), was bound to streptavidin plates for 1 hour at 4 °C with agitation. Plates were washed with PBST and incubated in buffer N at 30 °C in a water bath for 5 min. Then, plates were blocked in PBST containing 0.5% BSA, followed by the addition of HSC70 binding reactions, and detection as above.

DJA1 [2] = target: T2, DJA1 (Homo sapiens, UniProt P31689); test: ELISA binding of DJA1 to immobilized biotinylated CFTR peptides; conditions: 2 μM DJA1, absence of ATP, immobilized 15-mer; n ≥ 3
T2 construct: made in house
Experimental: as §1
(§2) The CFTR peptide library was designed as 15-mers with 10-residue overlaps covering the cytosolic sequences as in Fig. 1a and Supplemental Table S1. Synthetic peptides (Mimotopes, PepSet purity) contained an N-terminal biotin followed by linker sequence GSGS and the 15-mer sequence. […] Peptides were reconstituted in DMSO or water.
(§3) For peptide binding, streptavidin-coated black 96-well plates (Nunc Maxisorp, ThermoFisher) were pre-rinsed with PBS containing 0.05% Tween-20 (PBST), and 5 µM biotinylated peptides in 100 µl PBS were bound overnnight at 4 °C with agitation. Plates were washed with PBST and blocked with PBST containing 0.5% bovine serum albumin (BSA) for 1 h. After removal of blocking solution, 100 µl reactions containing chaperones at indicated concentrations were bound for 45 min at room temperature with agitation. HSC70 reactions were in buffer G containing 1 mM ATP, DJA1 and DJA2 reactions were in buffer H. For competition assays, chaperones and peptides were mixed at indicated concentrations immediately before the reactions were added to the plates. For detections, the plates were washed in PBST and 5 μM His-Probe-HRP conjugate (ThermoFisher) in 100 μL PBST added for 15 min with agitation. After washing in PBST, plates were developed using Amplex Red (ThermoFisher) according to manufacturer’s instructions, in a fluorescence plate reader (Tecan M1000).
(§4) Affinities were determined separately from binding curves and from competition curves. Data from binding of chaperones to immobilized peptides (Fig. 2a,b and Supplemental Fig. S2a–c) were fit to the equation 1/(1 − i) = (C/i)/Kd^B − b, where i is the relative saturation, C is the chaperone concentration (1 μM), Kd^B is the apparent dissociation constant from the binding data. In the plot of 1/(1 − i) against (C/i), the slope is 1/Kd^B, and −b is the intercept. […] In the plot of bi + (C/Kd^B)/i over D, the slope is 1/Kd^C, and e is the intercept. The amount of chaperone bound in the absence of competitor was set as i = 1.
(§5) Established statistical methods[71]–[73] were used to analyze the data for chaperone binding to the peptide library. First, biological and statistical outliers were identified with the Tukey method in two rounds, for biological and then statistical outliers. […] Binding data were represented as multiples of the standard deviations from the normal means. Binding in the presence of competitor peptides were shown as a fraction of binding in the absence of competitor, or the fraction competed calculated as 1 – fraction bound. Values were compared using a two-tailed unpaired Student’s t-test assuming unequal variance.

HSC70 and DJA2 = test: Refolding of guanidine denatured luciferase by HSC70 and DJA2; assay type: biochemical; conditions: 4 μM each HSC70 and DJA2, 100 nM luciferase, 100 μM peptide (25-fold excess), 60 min, % of control without peptide; n = 3
Experimental: Refolding of guanidine denatured luciferase with HSC70 and DJA2 was as described. […] To monitor refolding, luciferase activity was measured in a luminometer (Berthold Sirius) with the luciferase assay kit (Promega). For co-IPs, 20 μL reaction aliquots were stopped by dilution at 4 °C to 500 μL with buffer containing 0.1% Triton X-100, 0.2% BSA and 0.04 mg/mL apyrase (Sigma). Reactions were incubated with FLAG-M2 magnetic beads (Sigma) for 1 h at 4 °C with agitation, then beads were isolated and washed with buffer G containing 0.1% Triton X-100, and eluted with 40 μL of 1 μg/mL FLAG peptide in the same buffer. Samples were analyzed on Western blots detected with antibodies against luciferase (Sigma, L2164) and the FLAG-M2 tag (Sigma, F1804).

HSC70 [3] = target: T1, HSC70; test: ELISA binding of HSC70 to immobilized biotinylated CFTR peptides
Experimental: as §1, §2, §3, §4, §5

DJA2 [4] = target: T3, DJA2 (Homo sapiens, UniProt O60884); test: ELISA binding of DJA2 to immobilized biotinylated CFTR peptides; conditions: 2 μM DJA2, absence of ATP, immobilized 15-mer; n ≥ 3
T3 construct: made in house
T3 sequence (O60884 whole entry): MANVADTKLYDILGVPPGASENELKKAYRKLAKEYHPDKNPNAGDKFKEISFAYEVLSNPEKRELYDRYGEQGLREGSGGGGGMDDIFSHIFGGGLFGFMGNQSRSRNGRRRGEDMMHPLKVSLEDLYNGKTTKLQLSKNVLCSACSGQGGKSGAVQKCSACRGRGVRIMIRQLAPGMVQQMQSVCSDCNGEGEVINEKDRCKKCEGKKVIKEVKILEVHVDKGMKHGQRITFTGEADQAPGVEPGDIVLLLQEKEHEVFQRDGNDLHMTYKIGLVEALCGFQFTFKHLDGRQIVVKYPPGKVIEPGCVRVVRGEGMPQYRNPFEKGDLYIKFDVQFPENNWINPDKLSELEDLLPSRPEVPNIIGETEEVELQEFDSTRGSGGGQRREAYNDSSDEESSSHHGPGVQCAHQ
Experimental: as §1, §2, §3, §4, §5

Flag-tagged HSC70 = test: Co-immunoprecipitation of luciferase with Flag-tagged HSC70 during refolding; assay type: biochemical; conditions: refolding reactions stopped at 0 or 15 min, FLAG IP, Western blot, Fig. 4d
Experimental: as §1
Refolding of guanidine denatured luciferase with HSC70 and DJA2 was as described. 100 µl reactions contained 4 μM each of HSC70 and DJA2, 2 mM ATP and […] in buffer G, with the indicated concentrations of peptides. To monitor refolding, luciferase activity was measured in a luminometer (Berthold Sirius) with the luciferase assay kit (Promega). For co-IPs, 20 μL reaction aliquots were stopped by dilution at 4 °C to 500 μL with buffer containing 0.1% Triton X-100, 0.2% BSA and 0.04 mg/mL apyrase (Sigma). Reactions were incubated with FLAG-M2 magnetic beads (Sigma) for 1 h at 4 °C with agitation, then beads were isolated and washed with buffer G containing 0.1% Triton X-100, and eluted with 40 μL of 1 μg/mL FLAG peptide in the same buffer. Samples were analyzed on Western blots detected with antibodies against luciferase (Sigma, L2164) and the FLAG-M2 tag (Sigma, F1804).

HSC70 [5] = target: T1, HSC70; test: Competition ELISA: soluble peptide vs HSC70 binding to immobilized 1097-L
Experimental: as §1, §2, §3, §4, §5

DJA1 [6] = target: T2, DJA1; test: Competition ELISA: soluble peptide vs DJA1 binding to immobilized 1097-L
Experimental: as §1, §2, §3, §4, §5

DJA2 [7] = target: T3, DJA2; test: Fluorescent peptide binding, DJA2; conditions: 0.5 μM FAM-1092-S, buffer H, 45 min, ex 492 nm / em 520 nm, one site total binding fit, n ≥ 8
From the text: (§6) The CFTR peptide library was designed as 15-mers with 10-residue overlaps covering the cytosolic sequences as in Fig. 1a and Supplemental Table S1. Synthetic peptides (Mimotopes, PepSet purity) contained an N-terminal biotin followed by linker sequence GSGS and the 15-mer sequence. Soluble peptides (Lifetein) were synthesized unmodified at >85% purity, sequences in Supplemental Table S1 and S2. Fluorescent peptide 1092-S was fused to the linker sequence SG and an N-terminal 6-carboxyfluorescein (FAM) label. Peptides were reconstituted in DMSO or water.
(§7) 0.5 μM FAM-1092-S was incubated with chaperones at the indicated concentrations for 45 min. HSC70 was incubated in buffer G, DJA1 and DJA2 were incubated in buffer H. The fluorescence signal for each condition was measured at 492 nm wavelength excitation, 520 nm wavelength emission, and 5 nm slit width, using a Horiba FluoroMax spectrofluorometer. Data were collected with the FluorEssence software (Horiba). Dissociation constants (Kd) were determined by nonlinear regression fit of the averaged data to a one site – total binding model, using GraphPad Prism 8. The 95% confidence intervals and R^2 correlation coefficients are reported (Supplemental Table S3).

HSC70 [8] = target: T1, HSC70; test: Fluorescent peptide binding, HSC70; conditions: 0.5 μM FAM-1092-S, buffer G, 45 min, ex 492 nm / em 520 nm, one site total binding fit, n ≥ 8
From the text: as §6, §7

DJA2 [9] = target: T3, DJA2; test: Competition ELISA: soluble peptide vs DJA2 binding to immobilized 1097-L
Experimental: as §1, §2, §3, §4, §5

DJA1 [10] = target: T2, DJA1; test: Fluorescent peptide binding, DJA1; conditions: 0.5 μM FAM-1092-S, buffer H, 45 min, ex 492 nm / em 520 nm, one site total binding fit, n ≥ 8
From the text: as §6, §7

T1 sequence (P11142 whole entry): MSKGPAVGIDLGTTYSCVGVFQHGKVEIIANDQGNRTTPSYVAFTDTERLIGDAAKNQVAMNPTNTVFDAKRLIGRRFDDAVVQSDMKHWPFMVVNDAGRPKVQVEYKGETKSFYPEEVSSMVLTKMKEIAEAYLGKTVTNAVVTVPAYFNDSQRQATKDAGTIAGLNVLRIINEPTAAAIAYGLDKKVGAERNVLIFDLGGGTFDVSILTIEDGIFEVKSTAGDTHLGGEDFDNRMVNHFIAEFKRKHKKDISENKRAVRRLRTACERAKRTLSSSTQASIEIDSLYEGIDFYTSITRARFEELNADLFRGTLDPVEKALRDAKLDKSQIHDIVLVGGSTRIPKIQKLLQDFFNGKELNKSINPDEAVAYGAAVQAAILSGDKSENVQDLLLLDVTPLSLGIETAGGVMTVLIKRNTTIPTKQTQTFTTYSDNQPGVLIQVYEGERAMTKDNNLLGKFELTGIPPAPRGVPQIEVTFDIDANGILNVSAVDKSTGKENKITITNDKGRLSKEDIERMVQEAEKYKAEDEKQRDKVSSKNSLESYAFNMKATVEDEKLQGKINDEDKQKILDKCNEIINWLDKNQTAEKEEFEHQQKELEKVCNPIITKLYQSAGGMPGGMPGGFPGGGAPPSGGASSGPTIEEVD

Substance | competition of HSC70 binding to immobilized NBD1 (in words) (HSC70 [1]) | binding in peptide library screen, DJA1 (in words) (DJA1 [2]) | effect on luciferase refolding (in words) (HSC70 and DJA2) | binding in peptide library screen, HSC70 (in words) (HSC70 [3]; 2 μM HSC70, with ATP, immobilized 15-mer, n ≥ 3) | titration binding / saturation, HSC70 (in words) (HSC70 [3]; HSC70 titrated to 1.5 μM on immobilized peptide, Fig. 2a, S2a, n ≥ 6) | binding in peptide library screen, DJA2 (in words) (DJA2 [4]) | luciferase bound to HSC70 in presence of peptide (in words) (Flag-tagged HSC70) | competition of HSC70 binding to immobilized 1097-L (in words) (HSC70 [5]; 1 μM HSC70, soluble peptide up to 100 μM) | Kd (HSC70 [5]; read-out: Kd from competition curves, HSC70) [µM] | DJA1 binding site by competition screen (in words) (DJA1 [6]; 1 μM DJA1, 100 μM soluble peptide, Fig. 3c/5, cutoff twice SD of 733-L, n ≥ 4) | competition of DJA1 binding to immobilized 1097-L (in words) (DJA1 [6]; 1 μM DJA1, soluble peptide up to 100 μM) | Kd (DJA1 [6]; read-out: Kd from competition curves, DJA1) [µM] | Kd from fluorescence binding, DJA2 (DJA2 [7]) | Kd (DJA2 [7]; read-out: Kd from fluorescence binding, DJA2) [µM] | Kd from fluorescence binding, HSC70 (HSC70 [8]) | Kd (HSC70 [8]; read-out: Kd from fluorescence binding, HSC70) [µM] | Kd (DJA2 [9]) [µM] | competition of DJA2 binding to immobilized 1097-L (in words) (DJA2 [9]; 1 μM DJA2, soluble peptide up to 100 μM) | Kd from fluorescence binding, DJA1 (DJA1 [10]) | Kd (DJA1 [10]; read-out: Kd from fluorescence binding, DJA1) [µM]
733-L: R 15-mer 726-740, negative control (EDSDEPLERRLSLVP; UniProt P13569 726-740, looked up, fragment) [Peptide 733-L] | did not | low binding | no effect | low binding | low | low binding | luciferase was substantially bound | – | – | – | – | – | – | – | – | – | – | – | – | –
NWFLYLSTL [Peptide 1092-S] | effective competitors | – | inhibited refolding | – | – | – | – | competed all three chaperones | 1.26 | one of the few sites also bound by DJA1 | competed all three chaperones | 5.47 | single micromolar range | 8.46 | single micromolar range | 6.17 | 2.63 | competed all three chaperones | single micromolar range | 3.97
